Laboratory results: article PMC10056348, “Photocaged Histone Deacetylase Inhibitors as Prodrugs in Targeted Cancer Therapy” (Pharmaceuticals, 2023)

How the values were obtained:
[1] = system: A2780 cell line; assay: MTT cell viability assay, A2780; format: cell-based, human
Experimental: The amelanotic melanoma cell line MV-3 was obtained from EPO GmbH Berlin-Buch. The human ovarian carcinoma cell line A2780 was obtained from the European Collection of Cell Cultures (ECACC, Salisbury, UK). The cell lines were cultivated in RPMI 1640 medium supplemented with 10% fetal bovine serum and 50 U/mL penicillin and 50 µg/mL streptomycin and incubated at 37 °C under humidified air with 5% CO2 to 80–90% confluency before being used in further assays.
For this, 200-fold dilution series of the compounds of the respective stock solutions in DMSO (10 mM) were prepared in DMSO using clear U-bottom 96-well microplates (Greiner Bio-One, Greiner AG, Kremsmünster, Austria). Predilutions intended for photolysis experiments were irradiated for 10 min in the UV reactor described above. Thereafter, all predilutions were further diluted 1:200 in medium and provided in clear sterile F-bottom 96-well plates (Starlab GmbH, Hamburg, Germany). MV-3 cells were added at a density of 3000 cells/well and A2780 cells at a density of 8000 cells/well. The cells were added directly and without prior attachment. Final volume was 200 µL, and the final DMSO concentration was 0,5%. After 72 h, 40 µL MTT (3-(4,5-dimethylthiazol-2-yl)-2,5-diphenyltetrazolium bromide; BioChemica, Applichem GmbH, Darmstadt, Germany ) solution (5 mg/mL in phosphate-buffered saline) was added to determine cell survival. The formazan dye was dissolved in DMSO (Sigma-Aldrich, Steinheim, Germany) after 1 h, and absorbance was measured at 570 nm and 690 nm using a Multiskan microplate photometer (Thermo Fisher Scientific, Waltham, MA, USA). Concentration-effect curves were generated using the four-parameter logistic equation (GraphPad Prism 9.0, San Diego, CA, USA), and mean IC50 values were determined by nonlinear regression based on at least three distinct experiments in duplicates.

[2] = system: caspase 3/7 in A2780 cells; assay: Caspase-Glo 3/7 assay; format: cell-based, human; conditions: A2780, 0.5 µM, 24 h
Experimental: A2780 cells (8000 cells/well) were seeded in white sterile 96-well plates (ThermoFisher Scientific, Waltham, MA, USA, #136102). Dilutions (500 µM) in DMSO were prepared from the respective stock solutions in DMSO (10 mM). Predilutions used for photolysis experiments were irradiated in clear U-bottom 96-well microplates (Greiner Bio-One, Greiner AG, Kremsmünster, Austria) for 10 min in the UV reactor described above. Vehicle control (DMSO) or compounds, at a concentration of 0.5 µM, were added to the cells. The cells were then incubated for 24 h under standard culture conditions. The final volume was 100 µL, and the final DMSO concentration was 0.1%. After 24 h, cells were subsequently incubated with Caspase-Glo 3/7 substrate (Promega, Madison, WI, USA, #G8091) for 1 h at 25 °C, according to the manufacturer´s protocol. Luminescence was detected at 25 °C using a Spark microplate reader (Tecan Group AG, Maennedorf, Swiss). Two independent experiments were performed in triplicates.
GraphPad Prism (GraphPad Software, San Diego, CA, USA) was used to perform statistical analysis. Normality of the data was assessed using Shapiro–Wilk’s and Kolmogorov–Smirnov tests. To determine statistical differences between means, a one-way analysis of variance (ANOVA) was performed. If the difference was significant (p < 0.05), the mean of each column was compared to the mean of the control and corrected for multiple comparisons using Dunnett’s post-hoc test. Differences were considered statistically significant at * p < 0.05, ** p < 0.01, *** p < 0.001.

[3] = molecular target: T1, human recombinant HDAC1 (Homo sapiens, UniProt Q13547); assay: Fluorogenic HDAC enzyme inhibition assay (ZMAL substrate), HDAC1; format: biochemical
T1 construct: purchased BPS Bioscience Inc. 50051
T1 sequence (Q13547 whole entry): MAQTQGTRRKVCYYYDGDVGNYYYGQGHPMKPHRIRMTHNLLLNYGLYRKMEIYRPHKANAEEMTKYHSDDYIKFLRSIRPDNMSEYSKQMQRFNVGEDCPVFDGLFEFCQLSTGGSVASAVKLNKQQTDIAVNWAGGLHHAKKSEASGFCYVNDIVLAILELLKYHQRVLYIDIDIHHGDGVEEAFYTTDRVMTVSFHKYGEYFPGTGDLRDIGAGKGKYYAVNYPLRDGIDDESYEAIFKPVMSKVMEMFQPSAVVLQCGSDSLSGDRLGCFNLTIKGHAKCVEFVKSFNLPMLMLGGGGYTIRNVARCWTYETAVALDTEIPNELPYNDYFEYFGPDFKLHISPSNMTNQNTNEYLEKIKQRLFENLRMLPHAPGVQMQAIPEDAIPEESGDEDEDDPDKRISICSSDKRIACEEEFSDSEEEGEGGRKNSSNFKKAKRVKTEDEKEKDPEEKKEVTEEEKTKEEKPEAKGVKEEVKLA
Experimental: First, predilutions (100-fold final assay concentration) of test compounds or reference inhibitors were prepared. To this end, 3-fold serial dilutions of the respective DMSO stock solutions were prepared in DMSO using clear V-bottom 96-well microplates (Greiner Bio-One, Greiner AG, Kremsmünster, Austria). Predilutions designated for photolysis were irradiated for 10 min using the UV reactor described above. […] Next, 5.0 µL of these serial dilutions in assay buffer were transferred into 96-well microplates (OptiPlate-96 Black, PerkinElmer, Waltham, MA, USA). […] Fluorescence (excitation: 355 nm, emission: 460 nm) was measured using a FLUOstar OPTIMA microplate reader (BMG LABTECH GmbH, Ortenberg, Germany). IC50 values were determined by generating normalized dose–response curves using the built-in “log(inhibitor) vs. response (three parameters)” equation provided by GraphPad Prism (GraphPad Prism 9.0, San Diego, CA, USA). All compounds were tested in duplicates; reported mean IC50 values, including standard deviation, were calculated from at least two independent experiments.

Row | SMILES | IC50 ([1]; Homo sapiens, A2780, light or radiation study, MTT, 72 h, after UV irradiation (365 nm, 10 min)) | inhibition at 25 µM ([1]; Homo sapiens, A2780, light or radiation study, at 25 µM, without UV irradiation) | IC50 (A2780) ([1]; MTT, 72 h, without UV irradiation) | activation of caspase 3/7 ([2]; + UV (365 nm, 10 min)) | activation of caspase 3/7 ([2]; without UV) | IC50 ([3]; after UV irradiation (365 nm, 10 min)) | increase of HDAC1 inhibition upon irradiation with UV light ([3]; irradiated vs non-irradiated) | IC50 ([3]; without UV irradiation) | IC50 ([1]; Homo sapiens, A2780, light or radiation study, MTT, 72 h, without UV irradiation)
1 | COc1cc(CONC(=O)c2ccc(CN(CC(=O)NCc3ccccc3)C(=O)c3ccc(N(C)C)cc3)cc2)c([N+](=O)[O-])cc1OC [pc-I, N-[2-(Benzylamino)-2-oxoethyl]-N-(4-{[(4,5-dimethoxy-2-nitrobenzyl)oxy]carbamoyl}benzyl)-4-(dimethylamino)benzamide] | 428 ± 62.5 nM | < 25% | n.e. ^b (n.e— no effect: <25% inhibition at 25 µM) | significant activation of caspase 3/7 | inactive | 6.8 ± 1.2 nM | 121 fold | 824 ± 32.2 nM | –
2 | CN(C)c1ccc(C(=O)N(CC(=O)NCc2ccccc2)Cc2ccc(C(=O)NO)cc2)cc1 [I, N-[2-(benzylamino)-2-oxoethyl]-4-(dimethylamino)-N-[4-(hydroxycarbamoyl)-benzyl]-benzamide] | – | – | – | – | significant activation of caspase 3/7 | – | – | 12.7 ± 0.7 nM | 249 ± 84.7 nM
